Assay results taken from US12624044B2, “SMARCA degraders and uses thereof” (Kymera Therapeutics, Inc., priority 2019, dated 2026).

Experiments:
[1] = target: T1, SMARCA2 (Homo sapiens, UniProt P51531); test: MSD SMARCA2 degradation in NCI-H1299 cell line (24 h); assay type: cell-based; parameters: HC: NCI-H1299 cells treated with DMSO; host or cells: NCI-H1299; details: for Dmax: NCI-H1299, NCI-H1299 cells; for DC50: read-out: SMARCA2 MSD H1299 degradation 24 h: External Abs-DC50
In short: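 NCI-H1299 cells treated 24 h with a 3-fold, 9-point compound dilution series, then lysed in RIPA with protease inhibitor. SMARCA2 in lysate-coated MSD plates detected with rabbit anti-SMARCA2 (0.3 ug/ml) and SULFO-TAG secondary. Relative SMARCA2 level normalized between DMSO-treated H1299 cells and SMARCA2-negative A2780 cells; Dmax % binned A–D.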

[2] = target: T1, SMARCA2; test: MSD SMARCA2 degradation in A549 cell line; assay type: cell-based; details: 24 h; for Dmax: A549, A549 cells; for DC50: A549 cells, read-out: SMARCA2 MSD A549 degradation 24 h: Average external-Abs DC50
In short: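 A549 cells treated 24 h with compound at final 0.152-1000 nM (3-fold series, DMSO control). Lysates analyzed by MSD immunoassay using anti-SMARCA2/BRM detection and SULFO-TAG secondary antibodies; maximal degradation (Dmax %) reported as letter bins.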

T1 sequence (P51531 whole entry): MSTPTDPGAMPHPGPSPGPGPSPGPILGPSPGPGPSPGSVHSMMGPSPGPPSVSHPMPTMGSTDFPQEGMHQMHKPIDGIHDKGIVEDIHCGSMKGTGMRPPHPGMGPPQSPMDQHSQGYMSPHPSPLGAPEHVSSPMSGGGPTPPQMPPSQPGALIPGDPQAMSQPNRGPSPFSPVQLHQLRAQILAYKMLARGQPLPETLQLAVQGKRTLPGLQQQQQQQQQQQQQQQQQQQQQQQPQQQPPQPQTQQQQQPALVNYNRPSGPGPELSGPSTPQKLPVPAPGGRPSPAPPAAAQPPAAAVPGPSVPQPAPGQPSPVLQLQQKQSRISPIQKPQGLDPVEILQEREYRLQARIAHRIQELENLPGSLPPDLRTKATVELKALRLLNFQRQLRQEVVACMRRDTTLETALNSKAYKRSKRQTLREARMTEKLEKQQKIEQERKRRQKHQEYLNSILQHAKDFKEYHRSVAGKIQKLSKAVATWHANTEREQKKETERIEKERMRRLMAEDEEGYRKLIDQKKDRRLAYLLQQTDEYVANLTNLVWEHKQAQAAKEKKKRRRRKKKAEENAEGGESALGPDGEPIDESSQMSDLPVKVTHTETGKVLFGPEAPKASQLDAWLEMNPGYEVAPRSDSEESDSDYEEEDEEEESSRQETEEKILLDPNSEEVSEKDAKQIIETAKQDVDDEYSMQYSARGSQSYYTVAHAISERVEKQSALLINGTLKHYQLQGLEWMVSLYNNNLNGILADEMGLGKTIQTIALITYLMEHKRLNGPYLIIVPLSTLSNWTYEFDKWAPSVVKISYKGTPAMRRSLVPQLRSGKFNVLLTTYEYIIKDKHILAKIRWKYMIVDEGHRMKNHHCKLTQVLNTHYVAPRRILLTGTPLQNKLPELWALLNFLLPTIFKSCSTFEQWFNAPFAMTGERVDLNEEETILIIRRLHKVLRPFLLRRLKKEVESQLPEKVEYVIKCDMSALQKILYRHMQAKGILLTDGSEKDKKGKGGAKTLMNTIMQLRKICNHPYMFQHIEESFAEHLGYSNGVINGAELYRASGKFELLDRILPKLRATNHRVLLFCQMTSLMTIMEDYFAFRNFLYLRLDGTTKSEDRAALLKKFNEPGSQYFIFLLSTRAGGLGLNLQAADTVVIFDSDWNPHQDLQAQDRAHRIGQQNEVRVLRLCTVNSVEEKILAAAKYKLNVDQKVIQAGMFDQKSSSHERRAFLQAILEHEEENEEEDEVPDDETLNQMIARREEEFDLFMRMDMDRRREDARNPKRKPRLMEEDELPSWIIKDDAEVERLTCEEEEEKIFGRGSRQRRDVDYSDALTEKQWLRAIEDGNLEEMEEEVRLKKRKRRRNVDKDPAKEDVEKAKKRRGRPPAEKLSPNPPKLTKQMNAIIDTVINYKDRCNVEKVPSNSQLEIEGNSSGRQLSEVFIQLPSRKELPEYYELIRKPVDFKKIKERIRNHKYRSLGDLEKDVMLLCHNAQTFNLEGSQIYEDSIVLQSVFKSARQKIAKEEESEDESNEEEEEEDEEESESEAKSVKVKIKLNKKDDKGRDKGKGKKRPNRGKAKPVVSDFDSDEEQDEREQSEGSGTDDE

| SMILES | Dmax [1] | DC50 ([1]; NCI-H1299 cells) | Dmax [2] | DC50 [2] | SMARCA2 MSD H1299 degradation 24 h: Dmax % ([1]; NCI-H1299 cells) |
| --- | --- | --- | --- | --- | --- |
| Cn1c(=O)n(C2CCC(=O)NC2=O)c2ccc(CCCCCCCc3nccc(N4C5CCC4CN(c4cc(-c6ccccc6O)nnc4N)C5)n3)cc21 (centres unmarked) [I-287, 3-(5-(7-(4-(3-(3-amino-6-(2-hydroxyphenyl)pyridazin-4-yl)-3,8-diazabicyclo[3.2.1]octan-8-yl)pyrimidin-2-yl)heptyl)-3-methyl-2-oxo-2,3-dihydro-1H-benzo[d]imidazol-1-yl)piperidine-2,6-dione] | > 90% | 100 to 500 nM | 70 to 90% | 100 to 500 nM |  |
| Cc1ncsc1-c1ccc(CNC(=O)[C@@H]2C[C@@H](O)CN2C(=O)[C@@H](NC(=O)[C@H]2CC[C@@H](c3cnc(N4C5CCC4CN(c4cc(-c6ccccc6O)nnc4N)C5)nc3)CC2)C(C)(C)C)cc1 [I-336] |  | < 100 nM | > 90% | 100 to 500 nM |  |
| Cc1ncsc1-c1ccc(CNC(=O)[C@@H]2C[C@@H](O)CN2C(=O)[C@@H](NC(=O)[C@H]2CC[C@H](c3cnc(N4C5CCC4CN(c4cc(-c6ccccc6O)nnc4N)C5)nc3)CC2)C(C)(C)C)cc1 [I-337, (2S,4R)-1-((2S)-2-((1r,4S)-4-(2-(3-(3-amino-6-(2-hydroxyphenyl)pyridazin-4-yl)-3,8-diazabicyclo[3.2.1]octan-8-yl)pyrimidin-5-yl)cyclohexanecarboxamido)-3,3-dimethylbutanoyl)-4-hydroxy-N-(4-(4-methylthiazol-5-yl)benzyl)pyrrolidine-2-carboxamide] | > 90% | < 100 nM | > 90% | < 100 nM |  |
| Cc1ncsc1-c1ccc(CNC(=O)[C@@H]2C[C@@H](O)CN2C(=O)[C@@H](NC(=O)[C@H]2CC3(C2)C[C@H](N2CCC(n4cc(-c5cc(-c6ccccc6O)nnc5N)cn4)CC2)C3)C(C)(C)C)cc1 (some centres unmarked) [I-389] |  | 100 to 500 nM | > 90% | 100 to 500 nM | A (A (>90% degradation)) |
| Cc1ncsc1-c1ccc(CNC(=O)[C@@H]2C[C@@H](O)CN2C(=O)[C@@H](NC(=O)[C@H]2CC[C@@H](CN3CCC(n4cc(-c5cc(-c6ccccc6O)nnc5N)cn4)CC3)CC2)C(C)(C)C)cc1 [I-402] | 70 to 90% | 100 to 500 nM | 70 to 90% | 100 to 500 nM |  |
| Cc1ncsc1-c1ccc(CNC(=O)[C@@H]2C[C@@H](O)CN2C(=O)[C@@H](NC(=O)[C@H]2CC[C@H](CN3CCC(n4cc(-c5cc(-c6ccccc6O)nnc5N)cn4)CC3)CC2)C(C)(C)C)cc1 [I-403] | > 90% | 100 to 500 nM | > 90% | 100 to 500 nM |  |
